Measured values published in patent US20080009511A1, “Cancer treatment with compounds inhibiting PKC alpha” (priority 2004, published 2008).

Experiments:
[1] = system: A431 human epidermoid carcinoma cells; assay: Cell viability assay (trypan blue dye exclusion), viable cells counted at day 6; type: cell-based; settings: 10 micromoles
Procedure: (§1) The following cancer cells were maintained in Dulbecco's modified Eagle medium (DMEM) supplemented with 10 percent bovine calf serum. Cells were seeded for 24 hours. Then they were treated with PKC inhibitors or left untreated. The cells were then collected periodically and evaluated using trypan blue dye exclusion to assess viability using the method described by C Y Chen, et al., in J. Biol. Chem. 273:16700-16709. Cultures containing about 4×10^4 cells were treated with 5 micromoles of Gö7874 (except that PC3 prostate cancer cells were treated with 10 micromoles) and the viable cells were counted at day 6. […] Cultures containing about 4×10^4 cells were treated with or without 10 micromoles of Gö6850 and the viable cells were counted at day 6. […] Cultures containing about 4×10^4 cells were treated with or without 10 micromoles of NGIC-I and the viable cells were counted at day 6. […] Cultures containing about 4×10^4 cells were treated with or without 10 micromoles of Ro31-7549 and the viable cells were counted at day 6. […] Cultures containing about 4×10^4 cells were treated with or without 10 micromoles of Ro31-8220 and the viable cells were counted at day 6. […] Cultures containing about 4×10^4 cells were treated with or without 10 micromoles of Ro31-8425 and the viable cells were counted at day 6. […] Cultures containing about 4×10^4 cells were treated with or without 10 micromoles of Ro31-0432 and the viable cells were counted at day 6.

[2] = system: AGS human gastric cancer cells; assay: as above; type: cell-based; settings: 10 micromoles
Procedure: as §1

[3] = system: H460 human lung cancer cells; assay: as above; type: cell-based; settings: 10 micromoles
Procedure: as §1

[4] = system: HT29 human colon cancer cells; assay: as above; type: cell-based; settings: 10 micromoles
Procedure: as §1

[5] = system: Hela human cervical cancer cells; assay: as above; type: cell-based; settings: 10 micromoles
Procedure: as §1

[6] = system: HepG2 human liver cancer cells; assay: as above; type: cell-based; settings: 10 micromoles
Procedure: as §1

[7] = system: Jurkat cells (a human acute T-cell leukemia cell line); assay: as above; type: cell-based; settings: 10 micromoles
Procedure: as §1

[8] = system: MDA-MB-468 human breast cancer cells; assay: as above; type: cell-based; settings: 10 micromoles
Procedure: as §1

[9] = system: NBT-II human bladder cancer cells; assay: as above; type: cell-based; settings: 10 micromoles
Procedure: as §1

[10] = system: PANC-1 human pancreatic carcinoma cells; assay: as above; type: cell-based; settings: 10 micromoles
Procedure: as §1

[11] = system: PC3 human prostate cancer cells; assay: as above; type: cell-based; settings: 10 micromoles
Procedure: as §1

U251 human glioma cells = assay: as above; type: cell-based; settings: 10 micromoles
Procedure: as §1

KB oral cancer cells = assay: as above; type: cell-based, human; settings: 10 micromoles
Procedure: as §1

human cancer cells = assay: Cell viability assay, summary over the panel of cancer cells; type: cell-based; settings: 10 micromoles; day 6; cell lines not named as going to apoptosis
Procedure: The following cancer cells were maintained in Dulbecco's modified Eagle medium (DMEM) supplemented with 10 percent bovine calf serum. Cells were seeded for 24 hours. Then they were treated with PKC inhibitors or left untreated. The cells were then collected periodically and evaluated using trypan blue dye exclusion to assess viability using the method described by C Y Chen, et al., in J. Biol. Chem. 273:16700-16709. Cultures containing about 4×10^4 cells were treated with or without 10 micromoles of Gö6850 and the viable cells were counted at day 6. […] Cultures containing about 4×10^4 cells were treated with or without 10 micromoles of NGIC-I and the viable cells were counted at day 6. […] Cultures containing about 4×10^4 cells were treated with or without 10 micromoles of Ro31-7549 and the viable cells were counted at day 6. […] Cultures containing about 4×10^4 cells were treated with or without 10 micromoles of Ro31-8220 and the viable cells were counted at day 6. […] Cultures containing about 4×10^4 cells were treated with or without 10 micromoles of Ro31-8425 and the viable cells were counted at day 6. […] Cultures containing about 4×10^4 cells were treated with or without 10 micromoles of Ro31-0432 and the viable cells were counted at day 6.

[12] = about 4×10^4 cells seeded, untreated 3.8 ± 0.4

## Cn1cc(C2=C(c3cn(CCCSC(=N)N)c4ccccc34)C(=O)NC2=O)c2ccccc21 [Ro31-8220]
[1]; about 4×10^4 cells seeded, untreated 5.4 ± 0.4
  Treated (cell number × 10^5): 2.1 × 10^5
[1]; growth vs untreated
  % inhibiton: 60%
[2]
  cells that went to apoptosis upon treatment: all
[2]; about 4×10^4 cells seeded, untreated 2.4 ± 0.3
  Treated (cell number × 10^5): 0 × 10^5
[2]; growth vs untreated
  % inhibiton: * (indicates the inhibitor causes significant cell death, and cell number is less than originally seeded cell number.)
[3]; about 4×10^4 cells seeded, untreated 2.4 ± 0.2
  Treated (cell number × 10^5): 0.4 × 10^5
[3]; growth vs untreated
  % inhibiton: 85%
[4]; [12]
  Treated (cell number × 10^5): 0.6 × 10^5
[4]; growth vs untreated
  % inhibiton: 85%
[5]
  cells that went to apoptosis upon treatment: significant number
[5]; about 4×10^4 cells seeded, untreated 3.4 ± 0.4
  Treated (cell number × 10^5): 6.0 × 10^5
[5]; growth vs untreated
  % inhibiton: * (indicates the inhibitor causes significant cell death, and cell number is less than originally seeded cell number.)
[6]; about 4×10^4 cells seeded, untreated 4.2 ± 0.4
  Treated (cell number × 10^5): 0.4 × 10^5
[6]; growth vs untreated
  % inhibiton: 90%
[7]; about 4×10^4 cells seeded, untreated 8.8 ± 0.4
  Treated (cell number × 10^5): 0.5 × 10^5
[7]; growth vs untreated
  % inhibiton: 94%
[8]
  cells that went to apoptosis upon treatment: significant number
[8]; about 4×10^4 cells seeded, untreated 6.1 ± 0.4
  Treated (cell number × 10^5): 0.2 ± 0.05 × 10^5
[8]; growth vs untreated
  % inhibiton: * (indicates the inhibitor causes significant cell death, and cell number is less than originally seeded cell number.)
[9]
  cells that went to apoptosis upon treatment: all
[9]; about 4×10^4 cells seeded, untreated 2.9 ± 0.4
  Treated (cell number × 10^5): 0 × 10^5
[9]; growth vs untreated
  % inhibiton: * (indicates the inhibitor causes significant cell death, and cell number is less than originally seeded cell number.)
[10]
  cells that went to apoptosis upon treatment: all
[10]; about 4×10^4 cells seeded, untreated 2.1 ± 0.3
  Treated (cell number × 10^5): 0 × 10^5
[10]; growth vs untreated
  % inhibiton: * (indicates the inhibitor causes significant cell death, and cell number is less than originally seeded cell number.)
[11]; about 4×10^4 cells seeded, untreated 7.1 ± 0.3
  Treated (cell number × 10^5): 2.7 × 10^5
[11]; growth vs untreated
  % inhibiton: 62%
U251 human glioma cells; about 4×10^4 cells seeded, untreated 9.6 ± 0.5
  Treated (cell number × 10^5): 1.4 × 10^5
U251 human glioma cells; growth vs untreated
  % inhibiton: 85%
KB oral cancer cells
  cells that went to apoptosis upon treatment: all
KB oral cancer cells; [12]
  Treated (cell number × 10^5): 0 × 10^5
KB oral cancer cells; growth vs untreated
  % inhibiton: * (indicates the inhibitor causes significant cell death, and cell number is less than originally seeded cell number.)
Human cancer cells
  inhibition of growth in contrast to untreated cells, range over the other treated cancer cells: 60-94%
